# Patent US20110034531A1, “USE OF HDAC INHIBITORS FOR THE TREATMENT OF MELANOMA” (NOVARTIS AG, priority 2007, published 2011)
# What was measured:
# [1] = test system: panel of Melanoma cell lines
# Excerpt: (§1) The MTT is a colorimetric assay to determine the cell proliferation rate. The yellow tetrazolium MTT (3-(4,5-dimethylthiazolyl-2)-2,5-diphenyltetrazolium bromide) is reduced by metabolically active cells, in part by the action of dehydrogenase enzymes, to generate reducing equivalents, such as NADH and NADPH. The resulting intracellular purple formazan can be solubilized and quantified by spectrophotometric means. The signals produced is directly proportional to the cell numbers. Describing the MTT assay in detail, experiments were done using six-point or nine-point drug titrations in multi-well tissue culture dishes, with outer rows left empty. Cells were suspended in complete media at densities of between 10^3 and 10^4 cell/mL, respectively, and added per well. The appropriate medium (200 μL) was then added. […] This plate was incubated at 37° C. for 4 hours and the optical density was measured on a Molecular Devices Thermomax at 490 nm using the Softmax program. […]
# (§2) Compound addition began 24 hours after seeding, the same time as the T0 determination. […] The MTS solution was added (as for the To plate) and read 4 hours later. […]
# (§3) A panel of Melanoma cell lines were treated with DMSO vehicle control or varying concentrations of LBH589 for 3 days. Cell proliferation was measured on the day of cell plating and on the third day post-treatment. IC50 and LD50 values were calculated as described above.
# MeWo = assay: Monolayer growth inhibition assay (MTT/MTS), MeWo; type: cell-based; details: MeWo melanoma cell line, treated for 3 days
# Excerpt: as §1, §2, §3
# A2058 = assay: Monolayer growth inhibition assay (MTT/MTS), A2058; type: cell-based; details: A2058 melanoma cell line, treated for 3 days
# Excerpt: as §1, §2, §3
# G-361 = assay: Monolayer growth inhibition assay (MTT/MTS), G-361; type: cell-based; details: G-361 melanoma cell line, treated for 3 days
# Excerpt: as §1, §2, §3
# RPMI-7951 = assay: Monolayer growth inhibition assay (MTT/MTS), RPMI-7951; type: cell-based; details: RPMI-7951 melanoma cell line, treated for 3 days
# Excerpt: as §1, §2, §3
# SK-MEL-28 = assay: Monolayer growth inhibition assay (MTT/MTS), SK-MEL-28; type: cell-based; details: SK-MEL-28 melanoma cell line, treated for 3 days
# Excerpt: as §1, §2, §3
# WM-266-4 = assay: Monolayer growth inhibition assay (MTT/MTS), WM-266-4; type: cell-based; details: WM-266-4 melanoma cell line, treated for 3 days
# Excerpt: as §1, §2, §3
# A375 = assay: Monolayer growth inhibition assay (MTT/MTS), A375; type: cell-based; details: A375 melanoma cell line, treated for 3 days
# Excerpt: as §1, §2, §3
# SK-MEL-5 = assay: Monolayer growth inhibition assay (MTT/MTS), SK-MEL-5; type: cell-based; details: SK-MEL-5 melanoma cell line, treated for 3 days
# Excerpt: as §1, §2, §3
# [2] = Homo sapiens, 72 h, read-out: IC50 [nM] Measure of Cell Growth Inhibition
# [3] = concentration reducing cell number to 50% of original inoculum
compound,measurement,setting,value
"Cc1[nH]c2ccccc2c1CCNCc1ccc(/C=C/C(=O)NO)cc1 [LBH589, N-hydroxy-3-[4-[[[2-(2-methyl-1H-indol-3-yl)-ethyl]-amino]methyl]phenyl]-2E-2-propenamide]","LD50, cytotoxic effect",[1]; 3 days,< 160 nM
same,"IC50 values, anti-proliferative effect","[1]; all 8 melanoma cell lines examined, treated for 3 days",low nanomolar
same,IC50,MeWo; [2],34.5 nM
same,LD50 (nM) Measure of Cell Kill,MeWo; [3],157.64 nM
same,LD50 (nM) Measure of Cell Kill,A2058; [3],58.96 nM
same,IC50,A2058; [2],17.8 nM
same,LD50 (nM) Measure of Cell Kill,G-361; [3],51.44 nM
same,IC50,G-361; [2],8.09 nM
same,IC50,RPMI-7951; [2],27.6 nM
same,LD50 (nM) Measure of Cell Kill,RPMI-7951; [3],71.63 nM
same,IC50,SK-MEL-28; [2],43.1 nM
same,LD50 (nM) Measure of Cell Kill,SK-MEL-28; [3],129.33 nM
same,IC50,WM-266-4; [2],26.4 nM
same,LD50 (nM) Measure of Cell Kill,WM-266-4; [3],73.05 nM
same,LD50 (nM) Measure of Cell Kill,A375; [3],77.83 nM
same,IC50,"A375; Homo sapiens, A-375, 72 h, read-out: IC50 [nM] Measure of Cell Growth Inhibition",32.7 nM
same,IC50,SK-MEL-5; [2],6.15 nM
same,LD50 (nM) Measure of Cell Kill,SK-MEL-5; [3],54.95 nM
